Results: ChEMBL document CHEMBL1133320, “Inhibition of the ras-dependent mitogenic pathway by phosphopeptide prodrugs with antiproliferative properties” (Bioorg Med Chem Lett, 2000)
Numbered stars: 1 amine (or outer) side, 2 acyl side, 3 side chain; on linkers, the order of the positions; unused ones are H or OH. Square brackets hold non-standard residues; d marks the D form. Peptide text beside a SMILES is read from it. ξ: configuration not given here. X2 = CC(C)(C)C(=O)SCCOP(=O)(OCCSC(=O)C(C)(C)C)Oc1ccc(C[C@H](N[*:1])C(=O)[*:2])cc1; X1 = CC(=O)SCCOP(=O)(OCCSC(C)=O)Oc1ccc(C[C@H](N[*:1])C(=O)[*:2])cc1; F2Pmp = N[C@@H](Cc1ccc(C(F)(F)P(=O)(O)O)cc1)C(=O)O; Pmp = N[C@@H](Cc1ccc(CP(=O)(O)O)cc1)C(=O)O; pY = N[C@@H](Cc1ccc(OP(=O)(O)O)cc1)C(=O)O; ξP = O=C(O)C1CCCN1

Target: T1, Growth factor receptor-bound protein 2 (Homo sapiens, UniProt P62993)
T1 sequence (P62993 whole entry): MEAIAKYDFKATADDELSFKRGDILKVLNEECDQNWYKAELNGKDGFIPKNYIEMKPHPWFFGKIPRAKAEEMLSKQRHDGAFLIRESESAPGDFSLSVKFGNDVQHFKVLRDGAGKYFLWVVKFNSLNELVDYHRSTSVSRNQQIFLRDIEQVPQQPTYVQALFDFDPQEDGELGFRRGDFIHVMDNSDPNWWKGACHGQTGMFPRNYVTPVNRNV
Experiment: Dissociation constant of compound was determined from affinity of compound towards Growth factor receptor bound protein 2 measured by fluorescence; Non-detectable; call rule not given here

Q: How did the Kd turn out when `CC(=O)N1CCC[C@H]1C(=O)N[C@@H](Cc1ccccc1)C(=O)N[C@@H](Cc1ccc(OP(=O)(OCCSC(=O)C(C)(C)C)OCCSC(=O)C(C)(C)C)cc1)C(=O)N[C@H](C(=O)N[C@@H](CC(N)=O)C(=O)N[C@H](C(=O)N1CCCC1C(N)=O)C(C)C)C(C)C` (stereo partly specified) (Ac-PF[X2]VNV[ξP]-NH2) was run?
A: Not Active

Q: Which Kd does the source give for `CC(=O)SCCOP(=O)(OCCSC(C)=O)Oc1ccc(C[C@H](NC(=O)[C@H](Cc2ccccc2)NC(=O)[C@@H]2CCCN2C(C)=O)C(=O)N[C@H](C(=O)N[C@@H](CC(N)=O)C(=O)N[C@H](C(=O)N2CCC[C@H]2C(N)=O)C(C)C)C(C)C)cc1` (Ac-PF[X1]VNVP-NH2) here?
A: Not Active

Target: T1, Growth factor receptor-bound protein 2
Experiment: Dissociation constant of compound was determined from affinity of compound towards Growth factor receptor bound protein 2 measured by fluorescence

Q: For `CC(C)[C@H](NC(=O)[C@H](CC(N)=O)NC(=O)[C@@H](NC(=O)[C@H](Cc1ccc(C(F)(F)P(=O)(O)O)cc1)NC(=O)[C@H](CO)NC(=O)[C@@H]1CCCN1)C(C)C)C(=O)N[C@@H](CCC(N)=O)C(=O)N[C@@H](CC(N)=O)C(=O)O` (H-PS[F2Pmp]VNVQN-OH), which Kd is on record?
A: 200 nM

Q: How did the Kd turn out when `CC(C)[C@H](NC(=O)[C@H](CC(N)=O)NC(=O)[C@@H](NC(=O)[C@H](Cc1ccc(OP(=O)(O)O)cc1)NC(=O)[C@H](CO)NC(=O)[C@@H]1CCCN1)C(C)C)C(=O)N[C@@H](CCC(N)=O)C(=O)N[C@@H](CC(N)=O)C(=O)O` (H-PS[pY]VNVQN-OH) was run?
A: 18 nM

Q: For `CC(C)[C@H](NC(=O)[C@H](CC(N)=O)NC(=O)[C@@H](NC(=O)[C@H](Cc1ccc(CP(=O)(O)O)cc1)NC(=O)[C@H](CO)NC(=O)[C@@H]1CCCN1)C(C)C)C(=O)N[C@@H](CCC(N)=O)C(=O)N[C@@H](CC(N)=O)C(=O)O` (H-PS[Pmp]VNVQN-OH), which Kd is on record?
A: 260 nM

Q: Which Kd does the source give for `CC(=O)N1CCC[C@H]1C(=O)N[C@@H](Cc1ccccc1)C(=O)N[C@@H](Cc1ccc(OP(=O)(O)O)cc1)C(=O)N[C@H](C(=O)N[C@@H](CC(N)=O)C(=O)N[C@H](C(=O)N1CCC[C@H]1C(N)=O)C(C)C)C(C)C` (Ac-PF[pY]VNVP-NH2) here?
A: 30 nM
